# Experimental data published in patent US6716858B1, “Methods for inhibiting diabetic complications” (Kansas University Medical Center, priority 1995, dated 2004).
# Assays:
# [1] = tested on: AGE formation in bovine serum albumin (BSA); assay: Uninterrupted glycation of BSA with glucose, anti-AGE ELISA; format: biochemical; conditions: BSA 10 mg/ml, 1.0 M glucose, pH 7.5, 37° C., 6 weeks; inhibitors 3, 15 and 50 mM
# Description: (§1) Uninterrupted Glycation with Glucose Bovine serum albumin, ribonuclease A, and human hemoglobin were incubated with glucose at 37° C. in 0.4 M sodium phosphate buffer of pH 7.5 containing 0.02% sodium azide. The protein, glucose (at 1.0 M), and prospective inhibitors (at 0.5, 3, 15 and 50 mM) were introduced into the incubation mixture simultaneously. Solutions were kept in the dark in capped tubes. Aliquots were taken and immediately frozen until analyzed by ELISA at the conclusion of the reaction. The incubations were for 3 weeks (Hb) or 6 weeks (RNase, BSA).
# (§2) ELISA detection of AGE products. The general method of Engvall (1981, Methods Enzymol. 70:419-439) was used to perform the ELISA. Typically, glycated protein samples were diluted to approximately 1.5 ug/ml in 0.1 M sodium carbonate buffer of pH 9.5 to 9.7. The protein was coated overnight at room temperature onto 96-well polystyrene plates by pippetting 200 ul of the protein solution in each well (0.3 ug/well). After coating, the protein was washed from the wells with a saline solution containing 0.05% Tween-20. The wells were then blocked with 200 ul of 1% casein in carbonate buffer for 2 h at 37° C. followed by washing. Rabbit anti-AGE antibodies were diluted at a titer of about 1:350 in incubation buffer, and incubated for 1 h at 37° C., followed by washing. In order to minimize background readings, antibodies R479 used to detect glycated RNase were raised against glycated BSA, and antibodies R618 used to detect glycated BSA and glycated Hb were raised against glycated RNase. An alkaline phosphatase-conjugated antibody to rabbit IgG was then added as the secondary antibody at a titer of 1:2000 or 1:2500 (depending on lot) and incubated for 1 h at 37° C., followed by washing. The p-nitrophenylphosphate substrate solution was then added (200 ul/well) to the plates, with the absorbance of the released p-nitrophenolate being monitored at 410 nm with a Dynatech MR 4000 microplate reader.
# FIGS. 1 A-D are graphs which show the effect of vitamin B6 derivatives on post-Amadori AGE formation in bovine serum albumin glycated with glucose. BSA (10 mg/ml) was incubated with 1.0 M glucose in the presence and absence of the various indicated derivative in 0.4 M sodium phosphate buffer of pH 7.5 at 37° C. for 6 weeks. Aliquots were assayed by ELISA using R618 anti-AGE antibodies. Concentrations of the inhibitors were 3, 15 and 50 mM. Inhibitors used in FIGS. (1A) Pyridoxamine (PM); (1B) pyridoxal phosphate (PLP); (1C) pyridoxal (PL); (1D) pyridoxine (PN).
# FIGS. 2A-D are graphs which show the effect of vitamin B1 derivatives and aminoguanidine (AG) on AGE formation in bovine serum albumin. BSA (10 mg/ml) was incubated with 1.0 M glucose in the presence and absence of the various indicated derivative in 0.4 M sodium phosphate buffer of pH 7.5 at 37° C. for 6 weeks. Aliquots were assayed by ELISA using R618 anti-AGE antibodies. Concentrations of the inhibitors were 3, 15 and 50 mM. Inhibitors used in FIGS. (2A) Thiamine pyrophosphate (TPP); (2B) thiamine monophosphate (TP); (2C) thiamine (T); (2D) aminoguanidine (AG).
# [2] = tested on: AGE formation in human methemoglobin (Hb); assay: Uninterrupted glycation of human methemoglobin with glucose, anti-AGE ELISA; format: biochemical; conditions: Hb 1 mg/ml, 1.0 M glucose, 3 weeks; inhibitors 0.5, 3, 15 and 50 mM
# Description: as §1, §2
# (§3) Aliquots were assayed by ELISA using R618 anti-AGE antibodies.
# as §3
# [3] = tested on: AGE formation during uninterrupted glycation of ribonuclease A (RNase A) by ribose; assay: Uninterrupted ribose glycation assay, RNase; format: biochemical, bovine; conditions: continuous 0.05 M ribose, 6 weeks, inhibitors 0.5-50 mM
# Description: as §2
# as §1, with “ribose glycation assays” for “Glycation with Glucose”, “ribose” for “glucose”, “protein (10 mg/ml or 1 mg/ml), 0.05 M ribose,” for “protein, glucose (at 1.0 M),”, “BSA). Glycation reactions were monitored for constant pH throughout the duration of the experiments.” for “BSA).”
# The inhibitory effects of vitamin B1 and B6 derivatives on the kinetics of antigenic AGE formation were evaluated by polyclonal antibodies specific for AGEs. Initial inhibition studies were carried out on the glycation of bovine ribonuclease A (RNase) in the continuous presence of 0.05 M ribose, which is the concentration of ribose where the rate of AGE formation is near maximal.
# [4] = tested on: AGE formation during uninterrupted glycation of bovine serum albumin (BSA) by ribose; assay: Uninterrupted ribose glycation assay, BSA; format: biochemical; conditions: 0.05 M ribose, 6 weeks, inhibitors 0.5-50 mM
# Description: as §2
# as §1, with “ribose glycation assays” for “Glycation with Glucose”, “ribose” for “glucose”, “protein (10 mg/ml or 1 mg/ml), 0.05 M ribose,” for “protein, glucose (at 1.0 M),”, “BSA). Glycation reactions were monitored for constant pH throughout the duration of the experiments.” for “BSA).”
# [5] = tested on: post-Amadori AGE formation, RNase Amadori intermediate; assay: Interrupted (post-Amadori) ribose glycation assay, RNase; format: biochemical, bovine; conditions: RNase
# Description: as §2
# Glycation Modifications Modification with ribose or glucose was generally done at 37° C. in 0.4 M phosphate buffer of pH 7.5 containing 0.02% sodium azide. The high buffer concentration was always used with 0.5 M ribose modifications. The solutions were kept in capped tubes and opened only to remove timed aliquots that were immediately frozen for later carrying out the various analyses. “Interrupted glycation” experiments were carried out by first incubating protein with the ribose at 37° C. for 8 or 24 h, followed by immediate and extensive dialysis against frequent cold buffer changes at 4° C. The samples were then reincubated by quickly warming to 37° C. in the absence of external ribose. Aliquots were taken and frozen at various intervals for later analysis. Due to the low molecular weight of RNase, protein concentrations were remeasured after dialysis even when low molecular weight cut-off dialysis tubing was used. An alternative procedure was also devised (see below) in which interruption was achieved by simple 100-fold dilution from reaction mixtures containing 0.5 M ribose. Protein concentrations were estimated from UV spectra. The difference in molar extinction between the peak (278 nm) and trough (250 nm) was used for RNase concentration determinations in order to compensate for the general increase in UV absorbance that accompanies glycation. Time-dependent UV-difference spectral studies were carried out to characterize the glycation contributions of the UV spectrum. […]
# Glycation was first carried out by incubating protein (10 mg/ml) with 0.5 M ribose at 37° C. in 0.4 M phosphate buffer at pH 7.5 containing 0.2% sodium azide for 24 h in the absence of inhibitors. Glycation was then interrupted to remove excess and reversibly bound (Schiff base) sugar by extensive dialysis against frequent cold buffer changes at 4° C.
# [6] = 24 h in 0.5 M ribose, then free ribose removed, 37° C.
SMILES,inhibition of antigenic AGE formation (ELISA) [1],inhibition of antigenic AGE formation (ELISA) [2],inhibition of overall kinetics of AGE formation from ribose [3],inhibition of overall kinetics of AGE formation from ribose [4],"inhibition of post-Amadori AGE formation [5, 6]",inhibition of post-Amadori AGE formation ([5]; 50 mM inhibitor)
Cc1ncc(C[n+]2csc(CCO[P@](=O)(O)OP(=O)(O)O)c2C)c(N)n1 [thiamine pyrophosphate],effective at all concentrations tested,the most effective inhibitors in each of their respective families,both the rate of AGE formation and the final levels of AGE produced at the plateau appeared diminished,"inhibited the final levels of AGEs formed, without greatly affecting the rate of AGE formation",inhibited AGE formation more effectively than the other B1 derivatives,–
"N=C(N)NN [aminoguanidine, reference compound]","produced some inhibition of AGE formation in BSA, but less so than the above compounds","only inhibited the rate of AGE formation, and not the final levels of AGE formed","decreased the rate of AGE formation on RNase, but did not reduce the final level of AGE formed",appearing to slow the rate of AGE formation without significantly affecting the final levels of AGE formed,modest effects on blocking the formation of antigenic AGEs in RNase,less than 15%
Cc1ncc(CO)c(CN)c1O [pyridoxamine],strongly suppressed antigenic AGE formation at even the lowest concentrations tested,the most effective inhibitors in each of their respective families,best inhibitor of the “final” levels of AGE formed on RNase,"exhibited some inhibition at lower concentrations, and at the highest concentration tested appeared to inhibit the final levels of AGE formed more effectively than any of the other B6 derivatives",nearly complete inhibition of AGE formation with RNase at 15 mM and 50 mM,–
